The results in this text go back to ChEMBL document CHEMBL3044566, “Synthesis and anticancer activity of some new s-triazine derivatives” (Med Chem Res, 2013).

SMILES strings stand for the structures.

Common to all, as to type: functional, cell-based
Experiment [1] relates to MCF7. Briefly: Cytotoxicity against human MCF7 cells after 24 hrs by MTT assay. The note with it: MCF7, 24 h. A general note: Tetrazolium dyes change colour on reduction, which living cells bring about.
Experiment [2] deals with HT-29. Briefly: Cytotoxicity against human HT-29 cells after 24 hrs by MTT assay. As to conditions: HT-29, 24 h.
For experiment [3], the system named is A549. Nature of the experiment: Cytotoxicity against human A549 cells after 24 hrs by MTT assay. As to conditions: A549, 24 h.
In experiment [4] the test system is PA-1. Nature of the experiment: Cytotoxicity against human PA1 cells after 24 hrs by MTT assay. The note with it: PA-1, 24 h.

One may read the IC50 as the midpoint of a concentration-inhibition curve. A high value points to a need for much substance. `Clc1nc(Nc2ccccc2)nc(Nc2ccc(-c3nc4ccccc4o3)cc2)n1`: the IC50 in experiment [1] came out at 55.2 µM; in experiment [2], 32.6 µM; in experiment [3] it was 225 µM; in experiment [4], 169 µM.
Turning to `Clc1nc(NCc2ccccc2)nc(Nc2ccc(-c3nc4ccccc4o3)cc2)n1`, the IC50 in experiment [1] is 66.1 µM; in experiment [2], 44 µM; in experiment [3], 296 µM; in experiment [4], 195 µM.
Taken in the same sequence, the figures for `COc1ccc(Nc2nc(Cl)nc(Nc3ccc(-c4nc5ccccc5o4)cc3)n2)cc1` were 270 µM, 139 µM, 278 µM and 172 µM.
Taken in the same sequence, the figures for `c1ccc(CNc2nc(Nc3ccc(-c4nc5ccccc5o4)cc3)nc(N3CCOCC3)n2)cc1` were 2.46 µM, 0.92 µM, 23.4 µM and 10.5 µM.
For `Fc1ccc(Nc2nc(Nc3ccc(-c4nc5ccccc5o4)cc3)nc(N3CCOCC3)n2)cc1`, the IC50 was found to be 12.3 µM in experiment [1], 0.31 µM in experiment [2], 26.7 µM in experiment [3] and 0.45 µM in experiment [4].
Taken in the same sequence, the figures for `COc1ccc(Nc2nc(Nc3ccc(-c4nc5ccccc5o4)cc3)nc(N3CCOCC3)n2)cc1` were 6.48 µM, 0.14 µM, 12.9 µM and 0.25 µM.
In the same order, the values of `Fc1ccc(Nc2nc(Cl)nc(Nc3ccc(-c4nc5ccccc5o4)cc3)n2)cc1` are 68.4 µM, 47 µM, 254 µM and 186 µM.
For the compound `COc1cccc2c1C(=O)c1c(O)c3c(c(O)c1C2=O)C[C@@](O)(C(=O)CO)C[C@@H]3O[C@H]1C[C@H](N)[C@H](O)[C@H](C)O1` [DOXORUBICIN], the IC50 in experiment [1] is 10.9 µM; in experiment [2], 1.76 µM; in experiment [4] it was 0.64 µM.
For `c1ccc(Nc2nc(Nc3ccc(-c4nc5ccccc5o4)cc3)nc(N3CCOCC3)n2)cc1`, the IC50 in experiment [1] is 10.6 µM; in experiment [2] it was 0.27 µM; in experiment [3], 22 µM; in experiment [4], 0.61 µM.
